The record followed here is US11986471B2, “Compounds and methods of use” (Tango Therapeutics, Inc., priority 2018, dated 2024).

One experiment relates to HAP1 MTAP-deleted. Briefly: SDMA in-cell western assay, HAP1 MTAP-deleted cell line. It counts as cell-based. Particulars: for IC50: Homo sapiens, HAP1 MTAP-deleted cell line; for MTAP Intact/Deleted Ratio: IC50 ratio HAP1 MTAP-intact / HAP1 MTAP-deleted. The essentials: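 MTAP-null HAP1 cells, the deleted member of an isogenic pair with endogenously MTAP-expressing HAP1, are treated with compound. SDMA is then quantified by in-cell western and an IC50 is calculated.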

For experiment [1], the target named is T1, PRMT5 (Homo sapiens, UniProt O14744).
T1 construct: purchased Viva (custom protein)
Briefly: PRMT5 IC50 assay in the presence of MTA as cofactor. It counts as biochemical. Particulars: for IC50: PRMT5, MTA as cofactor. The essentials: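 Ki conversion: SAM arm, Ki=IC50/1.5; MTA arm, Ki=IC50/13.5. No-cofactor arm reported as IC50 only. Selectivity expressed as Ki(SAM)/Ki(MTA).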

Experiment [2] has as its target T1, PRMT5. Briefly: PRMT5 IC50 assay with no cofactor. It counts as biochemical. The essentials:
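Human PRMT5 inhibition, IC50 in μM; cofactor varied (SAM / MTA / none).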

In experiment [3] the target is T1, PRMT5. Briefly: PRMT5 IC50 assay in the presence of SAM as cofactor. It counts as biochemical. In short, it runs like this:
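Cofactor-free, SAM and MTA formats; IC50 μM; Ki = IC50/1.5 for SAM, IC50/13.5 for MTA.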

The subject of the next experiment is HAP1 MTAP-intact. Briefly: SDMA in-cell western assay, HAP1 MTAP-intact cell line. The experiment is classed as cell-based. The settings on record: Homo sapiens. In short, it runs like this: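 Cells from two matched HAP1 lines, MTAP-null and MTAP-expressing at endogenous levels, are treated with compound. SDMA is then quantified by in-cell western and an IC50 is calculated for each line.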

[4] abbreviates: ratio between the Ki in the presence of SAM and the Ki in the presence of MTA.
[5] abbreviates: ratio between Ki in the presence of SAM and Ki in the presence of MTA.

T1 sequence (O14744 whole entry): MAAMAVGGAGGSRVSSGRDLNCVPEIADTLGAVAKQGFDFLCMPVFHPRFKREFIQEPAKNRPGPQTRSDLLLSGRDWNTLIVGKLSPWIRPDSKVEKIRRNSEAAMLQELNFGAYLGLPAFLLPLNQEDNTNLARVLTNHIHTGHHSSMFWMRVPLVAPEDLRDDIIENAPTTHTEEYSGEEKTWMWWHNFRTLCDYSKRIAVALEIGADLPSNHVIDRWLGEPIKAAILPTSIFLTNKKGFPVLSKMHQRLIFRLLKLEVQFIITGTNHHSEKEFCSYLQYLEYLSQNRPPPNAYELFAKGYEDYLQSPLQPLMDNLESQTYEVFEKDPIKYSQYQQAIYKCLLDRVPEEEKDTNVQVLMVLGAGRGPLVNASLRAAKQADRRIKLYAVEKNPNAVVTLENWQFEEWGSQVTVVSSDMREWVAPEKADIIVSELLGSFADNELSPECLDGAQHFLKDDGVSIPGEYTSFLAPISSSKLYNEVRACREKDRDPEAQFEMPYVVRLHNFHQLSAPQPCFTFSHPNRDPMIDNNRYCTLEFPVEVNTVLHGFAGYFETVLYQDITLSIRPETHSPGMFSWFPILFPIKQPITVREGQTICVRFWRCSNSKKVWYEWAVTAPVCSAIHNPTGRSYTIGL
T1 sequence (Q9BQA1 whole entry partner): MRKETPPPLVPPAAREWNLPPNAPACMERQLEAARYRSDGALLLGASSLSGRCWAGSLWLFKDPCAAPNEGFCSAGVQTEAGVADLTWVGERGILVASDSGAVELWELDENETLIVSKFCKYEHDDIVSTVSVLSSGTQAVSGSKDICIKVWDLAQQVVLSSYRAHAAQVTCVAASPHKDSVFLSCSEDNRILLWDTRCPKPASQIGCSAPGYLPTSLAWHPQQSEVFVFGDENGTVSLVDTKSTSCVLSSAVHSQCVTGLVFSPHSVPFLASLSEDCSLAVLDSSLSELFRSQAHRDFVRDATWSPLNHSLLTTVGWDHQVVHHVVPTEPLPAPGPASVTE

As a reminder, the IC50 is the concentration that gives 50% inhibition. Regarding `CCN1CCN(c2nc(NC3COC3)cc(C(=O)NC[C@H](O)CN3CCc4cc(OCc5ocnc5C)ccc4C3)n2)CC1` [Compound 544, 2-(4-ethylpiperazin-1-yl)-N-[(2S)-2-hydroxy-3-(6-[(4-methyl-1,3-oxazol-5-yl)methoxy]-1,2,3,4-tetrahydroisoquinolin-2-yl}propyl]-6-[(oxetan-3-yl)amino]pyrimidine-4-carboxamide], the IC50 with HAP1 MTAP-deleted was 1 to 10 µM; at PRMT5 [1], 0.05 to 0.5 µM; against PRMT5 [2], 0.5 to 5 µM; on PRMT5 [3], 0.05 to 0.5 µM; in the experiment on HAP1 MTAP-intact, 1 to 10 µM. In the experiment with HAP1 MTAP-deleted, the “MTAP Intact/Deleted Ratio” value was “B* (an IC50 ratio greater than or equal to 3 fold but lower than 10 fold between the IC50 in the HAP1 MTAP-intact cell line and the HAP1 MTAP-deleted cell line)”. In addition, the “SAM/MTA Ratio” value on PRMT5 [1] (setting [4]) was “A (a Ki ratio greater than or equal to 10 fold between the Ki in the presence of SAM and the Ki in the presence of MTA)”.
For the compound `CC(=O)N1CCC(Nc2cc(C(=O)NC[C@H](O)CN3CCc4cc(OCc5ocnc5C)ccc4C3)cc(N(C)C)n2)CC1` [Compound 629, (S)-2-((1-acetylpiperidin-4-yl)amino)-6-(dimethylamino)-N-(2-hydroxy-3-(6-((4-methyloxazol-5-yl)methoxy)-3,4-dihydroisoquinolin-2(1H)-yl)propyl)isonicotinamide], the IC50 in the experiment on HAP1 MTAP-deleted was below 1 µM; on PRMT5 [1], 0.05 to 0.5 µM; on PRMT5 [2] (read-out: No Co-factor IC50) it was 0.5 to 5 µM; at PRMT5 [3], 0.05 to 0.5 µM; with HAP1 MTAP-intact, 1 to 10 µM. Further, the “MTAP Intact/Deleted Ratio” value in the experiment with HAP1 MTAP-deleted is “A* (an IC50 ratio greater than or equal to 10 fold between the IC50 in the HAP1 MTAP-intact cell line and the HAP1 MTAP-deleted cell line)”. In addition, the “SAM/MTA Ratio” value on PRMT5 [1] (setting [5]) was “A (a Ki ratio greater than or equal to 10 fold between the Ki in the presence of SAM and the Ki in the presence of MTA)”.
As for `Cc1c(OCc2ccnn2C)ccc2c1CCN(C[C@@H](O)CNC(=O)c1ccnc(NC3CCCC3)c1)C2` [Compound 277, (S)-2-(cyclopentylamino)-N-(2-hydroxy-3-(5-methyl-6-((1-methyl-1H-pyrazol-5-yl)methoxy)-3N-dihydroisoquinolin-2(1H)-yl)propyl)isonicotinamide], the IC50 in the experiment on HAP1 MTAP-deleted was at least 10 µM; on PRMT5 [1] it was 0.5 to 5 µM; at PRMT5 [2] (read-out: No Co-factor IC50), at least 5 µM; at PRMT5 [3] it was 0.5 to 5 µM; with HAP1 MTAP-intact it was at least 10 µM. The “MTAP Intact/Deleted Ratio” value in the experiment with HAP1 MTAP-deleted is “C* (an IC50 ratio of less than 3 fold between the IC50 in the HAP1 MTAP-intact cell line and the HAP1 MTAP-deleted cell line)”. For the same compound, the “SAM/MTA Ratio” value at PRMT5 [1] (setting [5]) was “A (a Ki ratio greater than or equal to 10 fold between the Ki in the presence of SAM and the Ki in the presence of MTA)”.
As to `CN(C)CCOc1cc(C(=O)NC[C@H](O)CN2CCc3c(ccc(OCc4cnco4)c3Cl)C2)cc(NC2CCC2)n1` [Compound 329, (S)—N-(3-(5-chloro-6-(oxazol-5-ylmethoxy)-3N-dihydroisoquinolin-2(1H)-yl)-2-hydroxypropyl)-2-(cyclobutylamino)-6-(2-(dimethylamino)ethoxy)isonicotinamide], the IC50 in the experiment on HAP1 MTAP-deleted was 1 to 10 µM; on PRMT5 [1] it was below 0.05 µM; on PRMT5 [2] (read-out: No Co-factor IC50), 0.5 to 5 µM; on PRMT5 [3], 0.05 to 0.5 µM; in the experiment with HAP1 MTAP-intact it was at least 10 µM. For the same compound, the “MTAP Intact/Deleted Ratio” value with HAP1 MTAP-deleted was “B* (an IC50 ratio greater than or equal to 3 fold but lower than 10 fold between the IC50 in the HAP1 MTAP-intact cell line and the HAP1 MTAP-deleted cell line)”. Also, the “SAM/MTA Ratio” value at PRMT5 [1] (setting [5]) is “A (a Ki ratio greater than or equal to 10 fold between the Ki in the presence of SAM and the Ki in the presence of MTA)”.
Take `Cc1ncoc1COc1ccc2c(c1)CCN(C[C@@H](O)CNC(=O)c1ccnc(Nc3cccnc3)c1)C2` [Compound 581, (S)—N-(2-hydroxy-3-(6-((4-methyloxazol-5-yl)methoxy)-3,4-dihydroisoquinolin-2(1H)-yl)propyl)-2-(pyridin-3-ylamino)isonicotinamide]: the IC50 with HAP1 MTAP-deleted was 1 to 10 µM; at PRMT5 [1], 0.05 to 0.5 µM; against PRMT5 [2], at least 5 µM; on PRMT5 [3] it was 0.05 to 0.5 µM; in the experiment with HAP1 MTAP-intact, 1 to 10 µM. For the same compound, in the experiment with HAP1 MTAP-deleted, the “MTAP Intact/Deleted Ratio” value was “B* (an IC50 ratio greater than or equal to 3 fold but lower than 10 fold between the IC50 in the HAP1 MTAP-intact cell line and the HAP1 MTAP-deleted cell line)”. The “SAM/MTA Ratio” value at PRMT5 [1] (setting [4]) was “A (a Ki ratio greater than or equal to 10 fold between the Ki in the presence of SAM and the Ki in the presence of MTA)”.
For `O=C(NC[C@H](O)CN1CCc2cc(OCc3cnco3)ccc2C1)c1ccnc(Nc2cccnc2)c1` [Compound 399, (S)—N-(2-hydroxy-3-(6-(oxazol-5-ylmethoxy)-3N-dihydroisoquinolin-2(1H)-yl)propyl)-2-(pyridin-3-ylamino)isonicotinamide], the IC50 was below 1 µM in the experiment on HAP1 MTAP-deleted; 0.05 to 0.5 µM on PRMT5 [1]; at least 5 µM at PRMT5 [2] (read-out: No Co-factor IC50); 0.5 to 5 µM on PRMT5 [3]; 1 to 10 µM in the experiment on HAP1 MTAP-intact. The “MTAP Intact/Deleted Ratio” value in the experiment with HAP1 MTAP-deleted was “B* (an IC50 ratio greater than or equal to 3 fold but lower than 10 fold between the IC50 in the HAP1 MTAP-intact cell line and the HAP1 MTAP-deleted cell line)”. For the same compound, on PRMT5 [1] (setting [5]), the “SAM/MTA Ratio” value was “A (a Ki ratio greater than or equal to 10 fold between the Ki in the presence of SAM and the Ki in the presence of MTA)”.
`O=C(NC[C@H](O)CN1CCc2c(ccc(OCc3cn[nH]c3)c2Cl)C1)c1ccnc(NC2CCC2)c1` [Compound 280, N-[(2S)-3-[5-chloro-6-(1H-pyrazol-4-ylmethoxy)-3,4-dihydro-1H-isoquinolin-2-yl]-2-hydroxy-propyl]-2-(cyclobutylamino)pyridine-4-carboxamide]: the IC50 in the experiment with HAP1 MTAP-deleted is below 1 µM; on PRMT5 [1] it was 0.5 to 5 µM; at PRMT5 [2] (read-out: No Co-factor IC50), at least 5 µM; at PRMT5 [3] it was 0.05 to 0.5 µM; with HAP1 MTAP-intact it was below 1 µM. Besides, in the experiment with HAP1 MTAP-deleted, the “MTAP Intact/Deleted Ratio” value was “C* (an IC50 ratio of less than 3 fold between the IC50 in the HAP1 MTAP-intact cell line and the HAP1 MTAP-deleted cell line)”.
Regarding `Cc1ncoc1COc1ccc2c(c1C)CCN(C[C@@H](O)CNC(=O)c1cc(NC3COC3)nc(N3CCN(C(=O)C(C)C)CC3)n1)C2` [Compound 421, N-[(2S)-2-hydroxy-3-{5-methyl-6-[(4-methyl-1,3-oxazol-5-yl)methoxy]-1,2,3,4-tetrahydroisoquinolin-2-yl}propyl]-2-[4-(2-methylpropanoyl)piperazin-1-yl]-6-[(oxetan-3-yl)amino]pyrimidine-4-carboxamide], the IC50 with HAP1 MTAP-deleted is 1 to 10 µM; at PRMT5 [1] it was 0.05 to 0.5 µM; on PRMT5 [2] (read-out: No Co-factor IC50), at least 5 µM; on PRMT5 [3], 0.05 to 0.5 µM; in the experiment on HAP1 MTAP-intact, at least 10 µM. In addition, the “MTAP Intact/Deleted Ratio” value in the experiment with HAP1 MTAP-deleted is “B* (an IC50 ratio greater than or equal to 3 fold but lower than 10 fold between the IC50 in the HAP1 MTAP-intact cell line and the HAP1 MTAP-deleted cell line)”. Besides, the “SAM/MTA Ratio” value at PRMT5 [1] (setting [5]) is “A (a Ki ratio greater than or equal to 10 fold between the Ki in the presence of SAM and the Ki in the presence of MTA)”.
In the case of `CC(=O)N1CCC(Nc2cccc(C(=O)NC[C@H](O)CN3CCc4c(ccc(OCc5cnco5)c4C)C3)c2)CC1` [Compound 529, 3-[(1-acetylpiperidin-4-yl)amino]-N-[(2S)-2-hydroxy-3-{5-methyl-6-[(1,3-oxazol-5-yl)methoxy]-1,2,3,4-tetrahydroisoquinolin-2-yl}propyl]benzamide], the IC50 in the experiment on HAP1 MTAP-deleted is 1 to 10 µM; at PRMT5 [1], 0.05 to 0.5 µM; against PRMT5 [2] it was 0.5 to 5 µM; on PRMT5 [3], 0.05 to 0.5 µM; in the experiment on HAP1 MTAP-intact, at least 10 µM. Also, the “MTAP Intact/Deleted Ratio” value in the experiment on HAP1 MTAP-deleted is “B* (an IC50 ratio greater than or equal to 3 fold but lower than 10 fold between the IC50 in the HAP1 MTAP-intact cell line and the HAP1 MTAP-deleted cell line)”. For the same compound, the “SAM/MTA Ratio” value at PRMT5 [1] (setting [4]) is “A (a Ki ratio greater than or equal to 10 fold between the Ki in the presence of SAM and the Ki in the presence of MTA)”.
Turning to `O=C(NC[C@H](O)CN1CCc2c(ccc(OCc3cnco3)c2Cl)C1)c1ccnc(N[C@H]2CC[C@H](C(F)(F)F)CC2)c1` [Compound 483, N—((S)-3-(5-chloro-6-(oxazol-5-ylmethoxy)-3N-dihydroisoquinolin-2(1H)-yl)-2-hydroxypropyl)-2-(((1RNS)-4-(trifluoromethyl)cyclohexy)amino)isonicotinamide], the IC50 with HAP1 MTAP-deleted is 1 to 10 µM; at PRMT5 [1] it was 0.05 to 0.5 µM; on PRMT5 [2], at least 5 µM; at PRMT5 [3] it was 0.5 to 5 µM; with HAP1 MTAP-intact, at least 10 µM. Further, the “MTAP Intact/Deleted Ratio” value with HAP1 MTAP-deleted is “C* (an IC50 ratio of less than 3 fold between the IC50 in the HAP1 MTAP-intact cell line and the HAP1 MTAP-deleted cell line)”. The “SAM/MTA Ratio” value at PRMT5 [1] (setting [4]) is “A (a Ki ratio greater than or equal to 10 fold between the Ki in the presence of SAM and the Ki in the presence of MTA)”.
